PMC11240139, “Exploring the antitumor potential of novel quinoline derivatives via tubulin polymerization inhibition in breast cancer; design, synthesis and molecular docking” (RSC Advances, 2024)

Columns and labels:
Assay in all cases: NCI-60 SRB cytotoxicity screen
Format in all cases: cell-based
[1] = system: MDA-MB-468 (breast cancer); conditions: MDA-MB-468, five-dose assay
Outline: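 NCI-60 single-dose (10^−5 M) screen in MDA-MB-468 with SRB protein-stain read-out after 48 h exposure; cells TCA-fixed and absorbance read at 540 nm. Reported as GI%, with compounds meeting NCI activity criteria then run at five doses (0.01–100 μM).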

[2] = system: NCI-H23 (non-small cell lung cancer)
MDA-MB-435 (melanoma) = system: MDA-MB-435 (melanoma)
[3] = system: NCI-H322M (non-small cell lung cancer)
UO-31 (renal cancer) = system: UO-31 (renal cancer)
MCF7 (breast cancer) = system: MCF7 (breast cancer)
BT-549 (breast cancer) = system: BT-549 (breast cancer)
SF-539 (CNS cancer) = system: SF-539 (CNS cancer)
[4] = system: NCI-H522 (non-small cell lung cancer)
SK-MEL-5 (melanoma) = system: SK-MEL-5 (melanoma)
ACHN (renal cancer) = system: ACHN (renal cancer)
CCRF-CEM (leukemia) = system: CCRF-CEM (leukemia)
OVCAR-8 (ovarian cancer) = system: OVCAR-8 (ovarian cancer)
U251 (CNS cancer) = system: U251 (CNS cancer)
SF-268 (CNS cancer) = system: SF-268 (CNS cancer)
HCT-15 (colon cancer) = system: HCT-15 (colon cancer)
[5] = Homo sapiens, NCI-H23, five-dose assay
[6] = Homo sapiens, single dose 10 μM, read-out: growth inhibition (GI%)
[7] = Homo sapiens, UO-31, five-dose assay
[8] = Homo sapiens, BT-549, five-dose assay
[9] = Homo sapiens, SF-539, five-dose assay
[10] = Homo sapiens, NCI-H522, five-dose assay
[11] = Homo sapiens, SK-MEL-5, five-dose assay
[12] = Homo sapiens, U-251, U251, five-dose assay
[13] = Homo sapiens, HCT-15, five-dose assay

SMILES: CCc1cccc2cc(-c3cc(-c4cc(OC)c(OC)c(OC)c4)[nH]c(=O)c3C#N)c(Cl)nc12 [Compound 4c, 4-(2-Chloro-8-ethylquinolin-3-yl)-2-oxo-6-(3,4,5-trimethoxyphenyl)-1,2-dihydropyridine-3-carbonitrile]
- TGI [1]: 61.60 µM
- GI50 [2, 5]: 3.2 µM
- LC50 (concentration killing 50% of cells) [2, 5]: > 100 µM
- inhibition at 10 µM ([2]; Homo sapiens, NCI-H23, single dose 10 μM, read-out: growth inhibition (GI%)): 68.6%
- TGI ([2]; NCI-H23, five-dose assay): >100 µM
- GI50 (MDA-MB-435 (melanoma); Homo sapiens, MDA-MB-435): 32.6 µM
- inhibition at 10 µM (MDA-MB-435 (melanoma); Homo sapiens, MDA-MB-435, read-out: growth inhibition (GI%)): 56.5%
- LC50 (lethal concentration, 50% net cell kill) (MDA-MB-435 (melanoma); Homo sapiens, MDA-MB-435, five-dose assay): > 100 µM
- TGI (MDA-MB-435 (melanoma); MDA-MB-435, five-dose assay): >100 µM
- GI50 ([3]; Homo sapiens, five-dose assay): 10.5 µM
- LC50 (concentration causing 50% net cell kill) ([3]; Homo sapiens, five-dose assay): > 100 µM
- inhibition at 10 µM [3, 6]: 53.7%
- TGI ([3]; five-dose assay): >100 µM
- GI50 (UO-31 (renal cancer); [7]): 12.6 µM
- LC50 (50% lethal concentration) (UO-31 (renal cancer); [7]): > 100 µM
- inhibition at 10 µM (UO-31 (renal cancer); Homo sapiens, UO-31, single dose 10 μM, read-out: growth inhibition (GI%)): > 100%
- TGI (UO-31 (renal cancer); UO-31, five-dose assay): >100 µM
- growth inhibition (GI%) (UO-31 (renal cancer); UO-31, single dose 10 μM): lethal effect
- GI50 (MCF7 (breast cancer); Homo sapiens, MCF7, five-dose assay): 24 µM
- CC50 (MCF7 (breast cancer); Homo sapiens, MCF7, five-dose assay, read-out: LC50 (the source's name)): > 100 µM
- inhibition at 10 µM (MCF7 (breast cancer); Homo sapiens, MCF7, single dose 10 μM, read-out: growth inhibition (GI%)): 54.8%
- TGI (MCF7 (breast cancer); MCF7, five-dose assay): >100 µM
- TGI (BT-549 (breast cancer); BT-549, five-dose assay): 28.10 µM
- GI50 (BT-549 (breast cancer); [8]): 4.11 µM
- LC50 (BT-549 (breast cancer); [8]): > 100 µM
- inhibition at 10 µM (BT-549 (breast cancer); Homo sapiens, BT-549, single dose 10 μM, read-out: growth inhibition (GI%)): 57.5%
- GI50 (SF-539 (CNS cancer); [9]): 12 µM
- LC50 (50% lethal concentration) (SF-539 (CNS cancer); [9]): 51.3 µM
- inhibition at 10 µM (SF-539 (CNS cancer); Homo sapiens, SF-539, single dose 10 μM, read-out: growth inhibition (GI%)): > 100%
- TGI (SF-539 (CNS cancer); SF-539, five-dose assay): 24.80 µM
- growth inhibition (GI%) (SF-539 (CNS cancer); SF-539, single dose 10 μM): lethal effect
- GI50 [4, 10]: 19.1 µM
- LC50 (concentration causing 50% net cell kill) [4, 10]: > 100 µM
- inhibition at 10 µM ([4]; Homo sapiens, NCI-H522, single dose 10 μM, read-out: growth inhibition (GI%)): > 100%
- TGI ([4]; NCI-H522, five-dose assay): >100 µM
- growth inhibition (GI%) ([4]; NCI-H522, single dose 10 μM): lethal effect
- GI50 (SK-MEL-5 (melanoma); [11]): 17.5 µM
- LC50 (SK-MEL-5 (melanoma); [11]): > 100 µM
- inhibition at 10 µM (SK-MEL-5 (melanoma); Homo sapiens, SK-MEL-5, single dose 10 μM, read-out: growth inhibition (GI%)): 78.6%
- TGI (SK-MEL-5 (melanoma); SK-MEL-5, five-dose assay): 90.20 µM
- GI50 (ACHN (renal cancer); Homo sapiens, five-dose assay): 15.6 µM
- LC50 (ACHN (renal cancer); Homo sapiens, five-dose assay): 61.8 µM
- inhibition at 10 µM (ACHN (renal cancer); [6]): 75.7%
- TGI (ACHN (renal cancer); five-dose assay): 31.00 µM
- GI50 (CCRF-CEM (leukemia); Homo sapiens, five-dose assay): 12 µM
- LC50 (CCRF-CEM (leukemia); Homo sapiens, five-dose assay): > 100 µM
- inhibition at 10 µM (CCRF-CEM (leukemia); [6]): 80.4%
- TGI (CCRF-CEM (leukemia); five-dose assay): >100 µM
- GI50 (OVCAR-8 (ovarian cancer); Homo sapiens, OVCAR-8, five-dose assay): 18.5 µM
- CC50 (OVCAR-8 (ovarian cancer); Homo sapiens, OVCAR-8, five-dose assay, read-out: LC50 (the source's name)): > 100 µM
- inhibition at 10 µM (OVCAR-8 (ovarian cancer); Homo sapiens, OVCAR-8, single dose 10 μM, read-out: growth inhibition (GI%)): 92.1%
- TGI (OVCAR-8 (ovarian cancer); OVCAR-8, five-dose assay): 93.60 µM
- GI50 (U251 (CNS cancer); [12]): 10.8 µM
- LC50 (concentration killing 50% of cells) (U251 (CNS cancer); [12]): 74.9 µM
- inhibition at 10 µM (U251 (CNS cancer); Homo sapiens, U-251, U251, single dose 10 μM, read-out: growth inhibition (GI%)): > 100%
- TGI (U251 (CNS cancer); U251, five-dose assay): 28.40 µM
- growth inhibition (GI%) (U251 (CNS cancer); U251, single dose 10 μM): lethal effect
- GI50 (SF-268 (CNS cancer); Homo sapiens, SF-268, five-dose assay): 13.8 µM
- CC50 (SF-268 (CNS cancer); Homo sapiens, SF-268, five-dose assay, read-out: LC50 (the source's name)): > 100 µM
- inhibition at 10 µM (SF-268 (CNS cancer); Homo sapiens, SF-268, single dose 10 μM, read-out: growth inhibition (GI%)): 34.4%
- TGI (SF-268 (CNS cancer); SF-268, five-dose assay): >100 µM
- TGI (HCT-15 (colon cancer); HCT-15, five-dose assay): >100 µM
- GI50 (HCT-15 (colon cancer); [13]): 27.6 µM
- LC50 (concentration causing 50% net cell kill) (HCT-15 (colon cancer); [13]): > 100 µM
- inhibition at 10 µM (HCT-15 (colon cancer); Homo sapiens, HCT-15, single dose 10 μM, read-out: growth inhibition (GI%)): 35.8%
